From US20250346579A1, “PYRIDAZINONE COMPOUND AND PREPARATION METHOD THEREFOR, PHARMACEUTICAL COMPOSITION THEREOF, AND APPLICATION THEREOF” (CHINA PHARMACEUTICAL UNIVERSITY, priority 2021, published 2025)
Where two headings read alike, the source gives them in different places.

Columns and labels:
[1] = Pharmacokinetic study in SD rats; assay type: in vivo; conditions: for AUC / Cmax / clearance / half-life: male, rat, supernatant of centrifuged blood
Description: (§1) Experimental process: 12 male SD rats were selected, 6 of the rats were orally administrated (3 of them were administered with RBN-2397, and the remaining 3 were administered with I-A-1, at a dose of 10 mg/kg), 6 of the rats were administered intravenously (3 of them were administered with RBN-2397, and the remaining 3 were administered with I-A-1, at a dose of 1 mg/kg), blood samples were collected at 0 min, 2 min, 5 min, 10 min, 20 min, 30 min, 60 min, 2 h, 4 h, 6 h, and 8 h, respectively, and then centrifuged (at 3000 rpm for 5 min), a supernatant was collected and analyzed by LC-MS-MS, and results were analyzed by using WinNonlin Software.

[2] = Pharmacokinetic study in ICR mice; assay type: in vivo; conditions: for AUC / Cmax / clearance / half-life: male, mouse, supernatant of centrifuged blood
Description: as §1, with “ICR mice” for “SD rats”

PARP7 = target: T1, PARP7 (Homo sapiens, UniProt Q7Z3E1); test: Inhibitory activity of compounds on PARP7 enzyme (PARP7 Chemiluminescent Assay Kit); assay type: biochemical
T1 construct: purchased BPS Bioscience
T1 sequence (Q7Z3E1 1-657): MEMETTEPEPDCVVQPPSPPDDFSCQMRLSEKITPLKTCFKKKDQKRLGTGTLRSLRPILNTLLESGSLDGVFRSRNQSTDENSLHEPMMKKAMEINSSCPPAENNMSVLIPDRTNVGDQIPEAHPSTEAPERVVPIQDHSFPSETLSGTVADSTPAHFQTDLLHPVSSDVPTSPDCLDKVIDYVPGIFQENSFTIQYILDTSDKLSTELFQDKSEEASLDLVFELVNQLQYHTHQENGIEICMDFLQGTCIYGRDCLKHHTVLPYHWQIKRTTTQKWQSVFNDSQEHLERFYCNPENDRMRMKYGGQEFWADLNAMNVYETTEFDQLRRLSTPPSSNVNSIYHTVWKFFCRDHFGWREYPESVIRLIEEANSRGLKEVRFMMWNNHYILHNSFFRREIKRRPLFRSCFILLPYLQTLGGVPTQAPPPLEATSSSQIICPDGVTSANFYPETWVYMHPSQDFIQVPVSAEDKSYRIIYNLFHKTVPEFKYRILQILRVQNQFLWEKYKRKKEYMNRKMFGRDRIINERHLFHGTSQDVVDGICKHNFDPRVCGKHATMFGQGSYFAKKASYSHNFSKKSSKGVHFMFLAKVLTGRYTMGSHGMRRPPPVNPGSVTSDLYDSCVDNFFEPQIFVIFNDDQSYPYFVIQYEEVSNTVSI
Description: Experimental materials: PARP7 Chemiluminescent Assay Kit, BPS Bioscience; DMSO, China National Pharmaceutical Group, Nivo, PerkinElmer.
(1) Preparation of Solutions and Buffers:
Preparation of 10×PBS: 720 mg of KH2PO4, 45 g of NaCl and 5.311 g of Na2HPO4·12H2O were weighed respectively and dissolved in 500 mL of deionized water, a system pH value was adjusted to 7.4, sterilization was performed at 121° C. for 30 min, and the system after cooling was placed at 4° C. for later use.
Preparation of 1×PBS: 10×PBS was diluted 10 times with deionized water, that is, 9 parts of deionized water was added to 1 part of 10×PBS for dilution.
Preparation of wash buffer: 1×PBS contained 0.05% Tween-20.
Preparation of 1×PARP buffer (prepared freshly before use): 10×PARP buffer was diluted 10 times with deionized water and placed on ice for later use.
(2) Preparation of Compound Working Solution Concentration:
According to test requirements, a compound to be tested is diluted with 100% DMSO to a desired concentration, and then diluted 10 times with 1×PARP buffer to prepare a 10× compound working solution.
a. 5× histone mixture was thawed on ice one day prior to the experiment;
b. preparation of 1× histone mixture: 1× histone mixture was prepared through the 5× histone mixture by using 1×PBS; and 25 μL of 1× histone mixture was taken from each well and transferred into a test well plate and incubated overnight at 4° C.;
c. 100 μL of Blocking buffer was taken from each well and added to the test well plate and incubated for 90 min at 25° C.;
d. after the incubation was completed, the liquid in the test well plate was spin-dried, and the test well plate was washed repeatedly for 3 times;
e. 2.5 μL of the compound working solution was taken from each well and added to the test well plate according to an experimental layout diagram; and 1×PARP buffer with a corresponding volume of 10% DMSO was added to positive control wells (Positive Control), and 1×PARP buffer of a corresponding volume was added to blank control wells (Blank);
f. after the enzyme was completely dissolved, an enzyme stock solution was diluted with 1×PARP buffer to 6 ng/μL;
g. 10 μL of enzyme solution was taken from each well and added to the test well plate, the blank control wells were added with the corresponding volume of 1×PARP buffer, and in which case, the enzyme amount was 60 ng per well. Note: this step needs to be performed on ice;
h. 12.5 μL of master mixture was added to each well of the test well plate (12.5 μL master mixture included 1.25 μL of 10×PARP buffer, 1.25 μL of Opti-PARP 10× Assay mixture and 10 μL of water); the test well plate was sealed and incubated at 25° C. for 60 min;
i. after the incubation was completed, the liquid in the test well plate was spin-dried, and the test well plate was washed repeatedly for 3 times;
j. Streptavidin-HRP in a kit was diluted 50 times with a Blocking buffer, 25 μL was taken from each well and added to the test well plate, and incubated at 25° C. for 30 min;
k. after the incubation was completed, the liquid in the test well plate was spin-dried, and the test well plate was washed repeatedly for 3 times;
l. ELISA ECL Substrate A and ELISA ECL Substrate B in the kit was mixed to obtain a mixed solution according to a ratio of 1:1, 50 μL of the mixed solution was added to each well of the test well plate, Nivo was used to perform Luminescence detection immediately, and a luminous value (RLU) was read; and
m. calculation of an enzyme rate: Enzyme Activity=(RLU(Sample)−RLU(Blank))/(RLU(Pos.Ctrl)−RLU(Blank))×100%; and enzyme inhibition rate=1−% Enzyme Activity, and specific results were shown in Table 1 below.

CT26 cells = test: In vivo pharmacodynamic study, CT26 subcutaneous tumors in BALB/c mice
Description: BALB/c mice were subcutaneously inoculated with CT26 cells in the right abdominal skin to develop tumors. Four days after tumor inoculation, 24 mice having a tumor size ranging from 55-75 mm^3 (with an average tumor size of 63 mm^3) were selected and randomly divided into 4 groups based on their tumor volumes, with 6 mice in each group. Drug administration was started on the day following random grouping (the day of random grouping was identified as Day 0), a carrier (0.5% of methyl cellulose+0.2% of Tween 80), Compound RBN-2397 (500 mg/kg, once a day, intragastric administration for 14 consecutive days), Compound I-A-1 (100 mg/kg, once a day, intragastric administration for 14 consecutive days), Compound I-A-1 (50 mg/kg, twice a day, intragastric administration for 14 consecutive days) were administered respectively, and the tumor size was measured three times per week during an administration period.

[3] = in words, background; cited from earlier work
NCI-H1373 cells = conditions: NCI-H1373 xenograft; dose of >30 mg/kg orally once a day; cited from earlier work

CL ([1]; PO 10 mg/kg) | F ([1]; PO 10 mg/kg) | AUC ([1]; IV 1 mg/kg) | Cmax ([1]; IV 1 mg/kg) | clearance ([1]; IV 1 mg/kg) | half-life ([1]; IV 1 mg/kg) | AUC ([1]; PO 10 mg/kg) | Cmax ([1]; PO 10 mg/kg) | half-life ([1]; PO 10 mg/kg) | AUC ([2]; IV 1 mg/kg) | Cmax ([2]; IV 1 mg/kg) | clearance ([2]; IV 1 mg/kg) | half-life ([2]; IV 1 mg/kg) | AUC ([2]; PO 10 mg/kg) | Cmax ([2]; PO 10 mg/kg) | half-life ([2]; PO 10 mg/kg) | Compound | other results
62.9522 mL/min/kg | 46.8% | 548 ng·h/mL | 333 ng/mL | 30.4 mL/min/kg | 1.72 h | 2560 ng·h/mL | 564 ng/mL | 2.57 h | 591 ng·h/mL | 419 ng/mL | 29 mL/min/kg | 1.44 h | 5660 ng·h/mL | 2300 ng/mL | 1.74 h | C[C@@H](CN1CC(C(=O)N2CCN(c3ncc(C(F)(F)F)cn3)CC2)C1)Nc1cn[nH]c(=O)c1C(F)(F)F [I-A-1, (S)-4-(trifluoromethyl)-5-((1-(3-(4-(5-(trifluoromethyl)pyrimidin-2-yl)piperazine-1-carbonyl)azetidin-1-yl)propan-2-yl)amino)pyridazin-3(2H)-one] | pharmacokinetic properties ([1]; in words): good pharmacokinetic properties; F ([2]; PO 10 mg/kg, 10 mg/kg): 95.80%; pharmacokinetic properties ([2]; in words): good pharmacokinetic properties; IC50 (PARP7; chemiluminescence, symbols defined as IC50 classes, read-out: 100 nM Inhibition Rate): < 100 nM; IC50 (PARP7; summary of Table 1, read-out: enzyme inhibition IC50 values): < 100 nM; anti-tumor activity (CT26 cells; 100 mg/kg once a day or 50 mg/kg twice a day, intragastric, 14 days, FIG. 2): significant anti-tumor activity; anti-tumor effect compared with the positive drug RBN-2397 (CT26 cells; I-A-1 100 mg/kg/day vs RBN-2397 500 mg/kg once a day): better anti-tumor effect at a lower dose
381.342 mL/min/kg | 12.4% | 333 ng·h/mL | 836 ng/mL | 50.6 mL/min/kg | 0.28 h | 415 ng·h/mL | 295 ng/mL | 0.75 h | 256 ng·h/mL | 757 ng/mL | 67 mL/min/kg | 0.15 h | 656 ng·h/mL | 1310 ng/mL | 0.9 h | C[C@@H](COCCC(=O)N1CCN(c2ncc(C(F)(F)F)cn2)CC1)Nc1cn[nH]c(=O)c1C(F)(F)F [RBN-2397, reference compound] | drug exposure and oral bioavailability in vivo [3]: low; in vivo clearance rate [3]: high; F ([2]; PO 10 mg/kg): 25.67%; anti-tumor effects (NCI-H1373 cells): significant anti-tumor effects
